# Data from ChEMBL document CHEMBL3991601, “The target landscape of clinical kinase drugs” (Science, 2017).
# Calls of active or inactive are those of the source. Rule as the data show it, for most assays here: actives have a measured Kd and inactives only a lower limit.
# What was measured:
# Ephrin type-A receptor 2 = Ephrin type-A receptor 2 (Homo sapiens, UniProt P29317)
# [1] = target: Ribosomal protein S6 kinase alpha-6 (Homo sapiens, UniProt Q9UK32)
# [2] = target: cAMP-dependent protein kinase catalytic subunit beta (Homo sapiens, UniProt P22694)
# [3] = target: T1, RNA cytidine acetyltransferase (Homo sapiens, UniProt Q9H0A0)
# T1 sequence (Q9H0A0 whole entry): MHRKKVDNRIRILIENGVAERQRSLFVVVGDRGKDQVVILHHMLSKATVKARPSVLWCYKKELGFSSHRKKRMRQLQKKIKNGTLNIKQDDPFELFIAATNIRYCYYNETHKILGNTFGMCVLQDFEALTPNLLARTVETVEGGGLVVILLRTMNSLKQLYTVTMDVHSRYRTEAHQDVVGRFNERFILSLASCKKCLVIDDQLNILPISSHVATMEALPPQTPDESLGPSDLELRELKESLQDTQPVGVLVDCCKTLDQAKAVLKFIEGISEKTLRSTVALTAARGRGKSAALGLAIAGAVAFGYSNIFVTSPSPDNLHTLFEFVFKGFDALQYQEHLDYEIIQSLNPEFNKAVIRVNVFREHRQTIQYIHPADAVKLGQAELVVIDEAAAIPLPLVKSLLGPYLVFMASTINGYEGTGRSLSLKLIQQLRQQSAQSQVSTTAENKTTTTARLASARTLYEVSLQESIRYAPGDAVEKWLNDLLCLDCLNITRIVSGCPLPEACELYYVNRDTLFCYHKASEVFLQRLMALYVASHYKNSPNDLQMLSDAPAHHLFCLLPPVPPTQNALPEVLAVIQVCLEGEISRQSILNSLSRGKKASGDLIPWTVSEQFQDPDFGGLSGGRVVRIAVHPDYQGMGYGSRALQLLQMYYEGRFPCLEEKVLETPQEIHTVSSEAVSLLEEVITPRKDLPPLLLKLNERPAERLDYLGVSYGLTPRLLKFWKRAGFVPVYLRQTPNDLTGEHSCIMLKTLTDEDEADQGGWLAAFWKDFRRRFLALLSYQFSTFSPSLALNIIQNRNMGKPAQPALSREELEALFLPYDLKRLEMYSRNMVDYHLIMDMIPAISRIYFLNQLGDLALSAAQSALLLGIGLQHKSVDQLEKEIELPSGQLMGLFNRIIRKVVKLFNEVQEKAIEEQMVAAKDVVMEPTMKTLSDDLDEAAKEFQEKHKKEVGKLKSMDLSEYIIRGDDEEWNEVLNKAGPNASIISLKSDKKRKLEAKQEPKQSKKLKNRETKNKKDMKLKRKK
# [4] = target: Serine/threonine-protein kinase PAK 2 (Homo sapiens, UniProt Q13177)
# [5] = target: T2, Dual specificity mitogen-activated protein kinase kinase 5 (Homo sapiens, UniProt Q13163)
# T2 sequence (Q13163 whole entry): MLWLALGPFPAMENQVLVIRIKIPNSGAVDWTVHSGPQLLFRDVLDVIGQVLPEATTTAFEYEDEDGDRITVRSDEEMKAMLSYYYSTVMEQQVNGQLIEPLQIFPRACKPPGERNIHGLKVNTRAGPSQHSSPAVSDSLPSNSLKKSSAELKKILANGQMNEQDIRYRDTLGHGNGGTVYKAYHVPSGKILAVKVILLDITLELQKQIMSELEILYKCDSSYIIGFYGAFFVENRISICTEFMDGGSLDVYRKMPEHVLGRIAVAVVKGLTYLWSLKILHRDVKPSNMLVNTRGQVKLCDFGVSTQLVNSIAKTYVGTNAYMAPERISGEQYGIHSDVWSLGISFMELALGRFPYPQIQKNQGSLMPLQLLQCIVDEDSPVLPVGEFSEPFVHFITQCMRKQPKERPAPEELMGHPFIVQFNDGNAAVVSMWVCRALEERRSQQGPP
# [6] = target: T3, Serine/threonine-protein kinase TAO3 (Homo sapiens, UniProt Q9H2K8)
# T3 sequence (Q9H2K8 whole entry): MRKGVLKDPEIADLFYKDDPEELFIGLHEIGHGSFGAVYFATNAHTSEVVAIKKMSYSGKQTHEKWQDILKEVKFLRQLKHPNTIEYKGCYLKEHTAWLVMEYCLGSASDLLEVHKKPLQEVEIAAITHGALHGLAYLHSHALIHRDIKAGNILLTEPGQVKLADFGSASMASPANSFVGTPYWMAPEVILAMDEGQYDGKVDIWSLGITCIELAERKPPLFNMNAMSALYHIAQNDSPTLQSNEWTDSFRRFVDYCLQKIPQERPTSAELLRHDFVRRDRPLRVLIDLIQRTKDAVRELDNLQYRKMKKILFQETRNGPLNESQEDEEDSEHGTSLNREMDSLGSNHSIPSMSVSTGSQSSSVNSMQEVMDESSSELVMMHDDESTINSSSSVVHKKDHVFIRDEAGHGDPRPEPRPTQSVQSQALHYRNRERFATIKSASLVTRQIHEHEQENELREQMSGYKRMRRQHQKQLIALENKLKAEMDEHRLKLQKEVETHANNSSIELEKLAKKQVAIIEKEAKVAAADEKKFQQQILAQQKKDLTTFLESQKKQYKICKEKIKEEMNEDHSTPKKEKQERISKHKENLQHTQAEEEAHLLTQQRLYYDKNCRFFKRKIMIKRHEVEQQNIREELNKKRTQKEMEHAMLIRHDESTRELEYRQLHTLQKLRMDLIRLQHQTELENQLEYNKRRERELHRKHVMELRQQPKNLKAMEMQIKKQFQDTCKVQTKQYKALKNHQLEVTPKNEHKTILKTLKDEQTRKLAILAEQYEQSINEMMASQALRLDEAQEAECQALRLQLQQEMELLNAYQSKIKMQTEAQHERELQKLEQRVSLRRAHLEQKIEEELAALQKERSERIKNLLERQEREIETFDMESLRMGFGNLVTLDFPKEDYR
# Adenosine kinase = Adenosine kinase (Homo sapiens, UniProt P55263)
# Activated CDC42 kinase 1 = Activated CDC42 kinase 1 (Homo sapiens, UniProt Q07912)
# Ephrin type-A receptor 4 = Ephrin type-A receptor 4 (Homo sapiens, UniProt P54764)
# [7] = target: Calcium/calmodulin-dependent protein kinase kinase 2 (Homo sapiens, UniProt Q96RR4)
# [8] = target: Mitogen-activated protein kinase kinase kinase 4 (Homo sapiens, UniProt Q9Y6R4)
# [9] = target: Serine/threonine-protein kinase 16 (Homo sapiens, UniProt O75716)
# [10] = target: Serine/threonine-protein kinase B-raf (Homo sapiens, UniProt P15056)
# Also: in the data inactive means no Kd found up to 30 µM.
# Serine/threonine-protein kinase B-raf, sequence (P15056 whole entry): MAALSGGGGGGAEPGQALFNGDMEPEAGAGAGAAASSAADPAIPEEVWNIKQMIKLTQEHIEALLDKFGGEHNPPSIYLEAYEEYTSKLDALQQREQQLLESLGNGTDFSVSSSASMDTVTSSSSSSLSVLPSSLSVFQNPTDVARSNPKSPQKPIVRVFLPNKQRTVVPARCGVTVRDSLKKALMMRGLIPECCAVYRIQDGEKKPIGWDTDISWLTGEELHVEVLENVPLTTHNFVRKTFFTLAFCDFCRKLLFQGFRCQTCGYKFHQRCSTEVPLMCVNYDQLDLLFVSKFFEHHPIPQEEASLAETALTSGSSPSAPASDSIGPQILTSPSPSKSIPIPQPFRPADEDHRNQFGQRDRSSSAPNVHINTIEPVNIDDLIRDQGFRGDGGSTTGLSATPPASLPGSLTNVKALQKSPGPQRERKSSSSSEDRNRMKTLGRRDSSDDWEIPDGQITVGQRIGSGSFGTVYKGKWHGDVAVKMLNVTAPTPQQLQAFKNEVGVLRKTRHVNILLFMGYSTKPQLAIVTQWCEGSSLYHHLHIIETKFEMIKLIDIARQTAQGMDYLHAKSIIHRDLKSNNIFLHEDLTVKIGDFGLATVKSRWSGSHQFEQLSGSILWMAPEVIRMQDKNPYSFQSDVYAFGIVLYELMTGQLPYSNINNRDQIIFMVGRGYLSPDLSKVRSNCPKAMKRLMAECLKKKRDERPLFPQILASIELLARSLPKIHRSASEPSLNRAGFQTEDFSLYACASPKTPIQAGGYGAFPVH
# Ephrin type-A receptor 4, sequence (P54764 whole entry): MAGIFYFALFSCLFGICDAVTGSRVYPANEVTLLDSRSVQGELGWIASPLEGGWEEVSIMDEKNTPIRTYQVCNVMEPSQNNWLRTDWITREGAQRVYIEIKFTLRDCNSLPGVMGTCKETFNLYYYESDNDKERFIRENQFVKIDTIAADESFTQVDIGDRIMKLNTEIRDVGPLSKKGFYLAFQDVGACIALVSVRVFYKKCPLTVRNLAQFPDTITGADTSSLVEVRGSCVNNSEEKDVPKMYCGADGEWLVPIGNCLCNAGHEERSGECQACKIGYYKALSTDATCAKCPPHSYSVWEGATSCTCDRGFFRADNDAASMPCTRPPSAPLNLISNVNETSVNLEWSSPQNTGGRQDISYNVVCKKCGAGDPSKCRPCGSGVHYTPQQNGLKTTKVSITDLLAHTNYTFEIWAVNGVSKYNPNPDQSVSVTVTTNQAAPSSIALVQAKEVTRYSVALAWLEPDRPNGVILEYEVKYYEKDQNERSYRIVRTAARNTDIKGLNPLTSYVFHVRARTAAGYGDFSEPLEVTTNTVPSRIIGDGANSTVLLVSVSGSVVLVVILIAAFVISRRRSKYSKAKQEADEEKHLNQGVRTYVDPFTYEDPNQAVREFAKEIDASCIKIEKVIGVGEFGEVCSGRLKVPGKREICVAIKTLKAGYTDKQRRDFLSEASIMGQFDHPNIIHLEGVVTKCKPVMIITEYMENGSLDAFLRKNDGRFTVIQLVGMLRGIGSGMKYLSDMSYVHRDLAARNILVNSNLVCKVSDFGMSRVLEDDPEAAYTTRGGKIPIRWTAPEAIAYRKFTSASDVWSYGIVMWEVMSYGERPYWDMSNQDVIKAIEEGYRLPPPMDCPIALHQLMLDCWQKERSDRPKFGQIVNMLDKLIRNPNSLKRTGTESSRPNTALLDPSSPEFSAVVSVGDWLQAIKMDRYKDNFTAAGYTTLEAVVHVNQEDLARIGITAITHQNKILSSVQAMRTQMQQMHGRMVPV
# Serine/threonine-protein kinase 16, sequence (O75716 whole entry): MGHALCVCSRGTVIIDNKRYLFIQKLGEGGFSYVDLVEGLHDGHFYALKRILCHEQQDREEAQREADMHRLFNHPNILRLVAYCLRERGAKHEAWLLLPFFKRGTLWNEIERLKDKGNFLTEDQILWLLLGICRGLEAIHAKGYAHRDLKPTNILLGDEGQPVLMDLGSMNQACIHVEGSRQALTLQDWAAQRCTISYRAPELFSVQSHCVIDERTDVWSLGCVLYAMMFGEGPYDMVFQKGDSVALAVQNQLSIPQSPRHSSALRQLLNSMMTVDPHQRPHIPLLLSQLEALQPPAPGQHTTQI
# Serine/threonine-protein kinase PAK 2, sequence (Q13177 whole entry): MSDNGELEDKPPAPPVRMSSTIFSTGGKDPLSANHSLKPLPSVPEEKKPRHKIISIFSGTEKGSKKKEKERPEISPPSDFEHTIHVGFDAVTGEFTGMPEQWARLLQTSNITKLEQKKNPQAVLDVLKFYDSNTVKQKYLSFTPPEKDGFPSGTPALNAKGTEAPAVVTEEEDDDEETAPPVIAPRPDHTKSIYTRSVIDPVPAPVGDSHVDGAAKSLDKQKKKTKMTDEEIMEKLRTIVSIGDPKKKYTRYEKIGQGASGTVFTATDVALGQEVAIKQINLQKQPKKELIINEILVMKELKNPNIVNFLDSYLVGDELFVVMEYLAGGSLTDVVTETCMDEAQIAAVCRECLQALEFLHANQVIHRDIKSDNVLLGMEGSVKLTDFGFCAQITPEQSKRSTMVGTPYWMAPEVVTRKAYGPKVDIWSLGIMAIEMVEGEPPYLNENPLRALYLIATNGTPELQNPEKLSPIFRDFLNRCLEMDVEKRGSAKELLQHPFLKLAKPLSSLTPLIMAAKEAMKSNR
# Ribosomal protein S6 kinase alpha-6, sequence (Q9UK32 whole entry): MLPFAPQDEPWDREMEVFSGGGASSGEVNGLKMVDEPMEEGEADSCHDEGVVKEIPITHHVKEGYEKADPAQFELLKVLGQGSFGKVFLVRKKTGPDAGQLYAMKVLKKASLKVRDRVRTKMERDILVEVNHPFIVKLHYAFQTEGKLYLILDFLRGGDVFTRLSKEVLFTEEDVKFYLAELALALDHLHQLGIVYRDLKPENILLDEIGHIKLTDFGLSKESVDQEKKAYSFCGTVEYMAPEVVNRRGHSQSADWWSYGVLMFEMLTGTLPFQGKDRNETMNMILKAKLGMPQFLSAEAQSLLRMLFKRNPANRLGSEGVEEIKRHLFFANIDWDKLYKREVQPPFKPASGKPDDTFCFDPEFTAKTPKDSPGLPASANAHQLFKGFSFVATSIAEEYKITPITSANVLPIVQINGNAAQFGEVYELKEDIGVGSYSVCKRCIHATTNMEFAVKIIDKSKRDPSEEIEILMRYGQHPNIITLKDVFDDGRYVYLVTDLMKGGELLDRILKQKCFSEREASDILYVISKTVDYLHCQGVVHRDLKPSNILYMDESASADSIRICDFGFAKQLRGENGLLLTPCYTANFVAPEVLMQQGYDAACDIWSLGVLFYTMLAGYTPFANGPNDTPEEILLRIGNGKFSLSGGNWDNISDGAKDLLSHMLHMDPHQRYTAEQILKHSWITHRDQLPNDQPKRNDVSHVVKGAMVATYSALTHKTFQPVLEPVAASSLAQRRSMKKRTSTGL
# Mitogen-activated protein kinase kinase kinase 4, sequence (Q9Y6R4 whole entry): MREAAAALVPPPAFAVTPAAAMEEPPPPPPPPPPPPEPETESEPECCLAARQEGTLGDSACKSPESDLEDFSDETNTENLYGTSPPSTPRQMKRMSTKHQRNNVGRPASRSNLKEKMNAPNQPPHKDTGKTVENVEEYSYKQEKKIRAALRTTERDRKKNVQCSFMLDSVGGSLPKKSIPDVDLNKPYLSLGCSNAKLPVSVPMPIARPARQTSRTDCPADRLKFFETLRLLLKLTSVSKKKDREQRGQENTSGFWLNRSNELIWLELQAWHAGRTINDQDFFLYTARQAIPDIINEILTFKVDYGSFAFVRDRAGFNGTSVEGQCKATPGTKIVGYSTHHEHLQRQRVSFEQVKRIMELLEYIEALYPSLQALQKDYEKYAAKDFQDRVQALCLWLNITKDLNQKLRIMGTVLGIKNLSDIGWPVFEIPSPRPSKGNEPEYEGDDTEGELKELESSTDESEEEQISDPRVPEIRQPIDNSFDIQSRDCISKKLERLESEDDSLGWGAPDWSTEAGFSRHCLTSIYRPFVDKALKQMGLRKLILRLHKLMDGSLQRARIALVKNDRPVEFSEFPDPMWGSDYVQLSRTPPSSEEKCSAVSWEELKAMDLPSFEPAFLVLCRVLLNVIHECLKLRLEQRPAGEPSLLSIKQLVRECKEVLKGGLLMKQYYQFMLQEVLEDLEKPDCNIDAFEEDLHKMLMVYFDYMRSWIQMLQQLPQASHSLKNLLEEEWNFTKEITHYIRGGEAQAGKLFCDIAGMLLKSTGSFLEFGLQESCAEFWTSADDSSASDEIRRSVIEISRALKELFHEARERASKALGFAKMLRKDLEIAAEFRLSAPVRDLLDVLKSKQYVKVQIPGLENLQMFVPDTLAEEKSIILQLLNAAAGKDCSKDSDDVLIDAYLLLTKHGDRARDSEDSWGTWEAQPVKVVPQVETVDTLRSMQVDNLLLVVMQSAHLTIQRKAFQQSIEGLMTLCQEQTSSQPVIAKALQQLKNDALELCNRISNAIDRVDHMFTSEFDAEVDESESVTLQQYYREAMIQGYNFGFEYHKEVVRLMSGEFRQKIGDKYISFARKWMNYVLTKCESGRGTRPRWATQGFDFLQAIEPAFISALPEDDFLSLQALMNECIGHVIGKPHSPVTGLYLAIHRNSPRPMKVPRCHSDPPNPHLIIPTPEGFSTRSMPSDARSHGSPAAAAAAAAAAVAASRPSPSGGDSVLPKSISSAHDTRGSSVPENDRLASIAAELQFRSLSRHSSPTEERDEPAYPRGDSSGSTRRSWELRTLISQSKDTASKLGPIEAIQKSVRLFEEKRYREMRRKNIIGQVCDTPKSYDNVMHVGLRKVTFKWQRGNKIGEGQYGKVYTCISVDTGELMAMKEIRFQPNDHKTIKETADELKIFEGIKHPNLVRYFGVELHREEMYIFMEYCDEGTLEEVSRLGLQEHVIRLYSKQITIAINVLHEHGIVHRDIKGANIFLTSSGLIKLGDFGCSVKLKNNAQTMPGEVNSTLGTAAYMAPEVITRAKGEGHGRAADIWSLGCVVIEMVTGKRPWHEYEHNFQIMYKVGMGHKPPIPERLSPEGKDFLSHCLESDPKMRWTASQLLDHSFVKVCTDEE
Kd (Ephrin type-A receptor 2),Kd [1],Kd [2],Kd [3],Kd [4],Kd [5],Kd [6],Kd (Adenosine kinase),Kd (Activated CDC42 kinase 1),Kd (Ephrin type-A receptor 4),Kd [7],Kd [8],Kd [9],Kd [10],SMILES
> 30 µM (inactive),> 30 µM (inactive),> 30 µM (inactive),> 30 µM (inactive),> 30 µM (inactive),> 30 µM (inactive),3.32 µM (active),> 30 µM (inactive),> 30 µM (inactive),> 30 µM (inactive),> 30 µM (inactive),1.44 µM (active),> 30 µM (inactive),–,COC(=O)N[C@@H](C)CNc1nccc(-c2cn(C(C)C)nc2-c2cc(Cl)cc(NS(C)(=O)=O)c2F)n1 [ENCORAFENIB]
> 30 µM (inactive),> 30 µM (inactive),> 30 µM (inactive),> 30 µM (inactive),> 30 µM (inactive),0.734 µM (active),> 30 µM (inactive),> 30 µM (inactive),> 30 µM (inactive),> 30 µM (inactive),> 30 µM (inactive),> 30 µM (inactive),> 30 µM (inactive),–,CCCS(=O)(=O)Nc1ccc(F)c(C(=O)c2c[nH]c3ncc(-c4ccc(Cl)cc4)cc23)c1F [VEMURAFENIB]
> 30 µM (inactive),> 30 µM (inactive),> 30 µM (inactive),> 30 µM (inactive),> 30 µM (inactive),> 30 µM (inactive),> 30 µM (inactive),> 30 µM (inactive),–,> 30 µM (inactive),> 30 µM (inactive),> 30 µM (inactive),> 30 µM (inactive),> 30 µM (inactive),OCCn1cc(-c2cnc3nnn(Cc4ccc5ncccc5c4)c3n2)cn1 [PF-04217903]
> 30 µM (inactive),> 30 µM (inactive),> 30 µM (inactive),> 30 µM (inactive),> 30 µM (inactive),> 30 µM (inactive),2.44 µM (active),> 30 µM (inactive),–,> 30 µM (inactive),> 30 µM (inactive),> 30 µM (inactive),> 30 µM (inactive),> 30 µM (inactive),CCc1cnn2c(NCc3ccc[n+]([O-])c3)cc(N3CCCC[C@H]3CCO)nc12 [DINACICLIB]
–,> 30 µM (inactive),–,> 30 µM (inactive),> 30 µM (inactive),1.48 µM (active),–,> 30 µM (inactive),–,–,52.8 µM (active),> 30 µM (inactive),0.21 µM (active),> 30 µM (inactive),Cc1nc(N)sc1-c1ccnc(Nc2ccc(N3CCOCC3)cc2)n1 [CYC-116]
–,–,–,> 30 µM (inactive),–,–,–,> 30 µM (inactive),–,–,–,–,–,–,CN1CCN(c2ccc3nc(-c4c(N)c5c(F)cccc5[nH]c4=O)[nH]c3c2)CC1 [DOVITINIB]
> 30 µM (inactive),> 30 µM (inactive),> 30 µM (inactive),> 30 µM (inactive),> 30 µM (inactive),2.91 µM (active),> 30 µM (inactive),> 30 µM (inactive),> 30 µM (inactive),> 30 µM (inactive),> 30 µM (inactive),> 30 µM (inactive),> 30 µM (inactive),–,COc1cc2nccc(Oc3ccc(NC(=O)NC4CC4)c(Cl)c3)c2cc1C(N)=O [LENVATINIB]
–,–,> 30 µM (inactive),> 30 µM (inactive),> 30 µM (inactive),> 30 µM (inactive),–,> 30 µM (inactive),–,> 30 µM (inactive),> 30 µM (inactive),> 30 µM (inactive),0.702 µM (active),> 30 µM (inactive),Cc1cc(Nc2cc(N3CCN(C)CC3)nc(/C=C/c3ccccc3)n2)n[nH]1 [ENMD-2076]
0.832 µM (active),> 30 µM (inactive),> 30 µM (inactive),> 30 µM (inactive),> 30 µM (inactive),> 30 µM (inactive),> 30 µM (inactive),> 30 µM (inactive),> 30 µM (inactive),> 30 µM (inactive),> 30 µM (inactive),> 30 µM (inactive),> 30 µM (inactive),–,CNC(=O)c1cc(Oc2ccc(NC(=O)Nc3ccc(Cl)c(C(F)(F)F)c3)c(F)c2)ccn1 [REGORAFENIB]
–,–,–,> 30 µM (inactive),–,–,–,> 30 µM (inactive),–,–,–,–,–,–,Nc1nc(N)c2nc(-c3cccc(O)c3)c(-c3cccc(O)c3)nc2n1 [TG100-115]
–,–,–,> 30 µM (inactive),–,–,–,> 30 µM (inactive),–,–,–,–,–,–,CCn1c(-c2nonc2N)nc2c(C#CC(C)(C)O)ncc(OC[C@H]3CCCNC3)c21 [GSK-690693]

SMILES,Kd (Ephrin type-A receptor 2),Kd [1],Kd [2],Kd [3],Kd [4],Kd [5],Kd [6],Kd (Adenosine kinase),Kd (Activated CDC42 kinase 1),Kd (Ephrin type-A receptor 4),Kd [7],Kd [8],Kd [9],Kd [10]
Cc1cn(-c2cc(NC(=O)c3ccc(C)c(Nc4nccc(-c5cccnc5)n4)c3)cc(C(F)(F)F)c2)cn1 [NILOTINIB],–,–,–,> 30 µM (inactive),–,–,–,> 30 µM (inactive),–,–,–,–,–,–
O=C(Nc1cccc(Cl)c1)Nc1ncc(CCNc2ncnc3ccsc23)s1 [SNS-314],–,> 30 µM (inactive),> 30 µM (inactive),> 30 µM (inactive),> 30 µM (inactive),> 30 µM (inactive),> 30 µM (inactive),> 30 µM (inactive),–,> 30 µM (inactive),> 30 µM (inactive),> 30 µM (inactive),> 30 µM (inactive),–
COC(=O)[C@@]1(O)C[C@H]2O[C@]1(C)n1c3ccccc3c3c4c(c5c6ccccc6n2c5c31)C(=O)NC4 [K-252A],> 30 µM (inactive),2.18 µM (active),> 30 µM (inactive),> 30 µM (inactive),> 30 µM (inactive),2.03 µM (active),> 30 µM (inactive),> 30 µM (inactive),–,> 30 µM (inactive),2.28 µM (active),> 30 µM (inactive),> 30 µM (inactive),> 30 µM (inactive)
